Results as given in patent publication US20080261891A1, “COMPOSITIONS AND METHODS FOR USING SYRINGOPEPTIN 25A AND RHAMNOLIPIDS” (Utah State University, priority 2007, published 2008).

Tests used:
[1] = tested on: M. tuberculosis H37Rv; assay: MIC by microplate Alamar Blue assay (MABA); assay type: cell-based, Mycobacterium tuberculosis; conditions: 7H12 media
[2] = tested on: mouse enteroendocrine cells (STC-1); assay: Toxicity to mammalian cells, percent cell death (Nucleocounter); conditions: positive control
Experimental: (§1) Toxicity of the two compounds to mammalian cells was assayed in cell culture using mouse enteroendocrine cells (STC-1), human embryonic kidney cells (HEK 293; ATCC CRL-1573), and human lung fibroblasts (LL47; ATCC CCL-135). […] The human embryonic kidney cells and human lung fibroblasts were grown as per the American Type Culture Collection's recommendation, while the mouse enteroendocrine cells were grown as described by Vincent et al. (2001, Proc. Natl. Acad. Sci., 99:2392-2397). Media and sera were purchased from HyClone Laboratories (Logan, Utah). All cells were grown in 10% fetal bovine serum (FBS).
(§2) The number in the parenthesis represents the concentration of each compound in μg/mL. The percent cell death was benchmarked to 100% lysis with the positive control. The number of total cells and dead cells were counted after 6, 24, and 48 h using a Nucleocounter Automated cell counting system (New Brunswick; Edison, N.J.). Briefly, cells (STC, 200,000 cells/well; HEK 293, 200,000 cells/well; and LL47, 100,000 cells/well) were incubated in the appropriate medium for 24 h prior to addition of fresh media containing the antimicrobial compounds. After addition of the antimicrobial compound, the cell cultures were incubated at 37° C. with 5% CO2 for 6, 24, and 48 h. Cells were harvested by trypsinization using 0.25% trypsin-EDTA for 2 min. The trypsin was neutralized by addition of 200 μL of serum containing fresh medium. The cells were then harvested and transferred to 1.5 mL tubes, centrifuged (3-5 min at <100×g), and resuspended in 200 μL of fresh medium. For the total cell count, 100 μL of the suspension was added to lysis buffer (Reagent A100 in the starting kit (Cat No. M1293-0020, New Brunswick Scientific) for 30 s, which was stabilized using 100 μL of Reagent B. A positive control of completely lysed cells was used along with a negative control using sterile PBS (pH 7.4). For dead cell counts, 100 μL of cell lysate was counted without the use of lysis buffer or stabilizing buffer. All cell counts were obtained using the Nucleocounter automated cell counting system. Data were reported as the percent of cell death. The toxicity testing was done in replicate using three wells per test.

[3] = tested on: human embryonic kidney cells (HEK 293); assay: as above; conditions: positive control
Experimental: as §1, §2

[4] = tested on: human lung fibroblasts (LL47); assay: as above; conditions: positive control
Experimental: as §1, §2

Row | Compound | expected MIC range (quality control) [1] | lysis [2] | lysis [3] | lysis [4]
1 | NNC(=O)c1ccncc1 [Isoniazid] | 0.025 to 0.1 µg/mL |  |  | 
2 | triton [reference compound] |  | 100% | 100% | 100%
